# Test results taken from US9630977B2, “Cephalosporin derivatives and pharmaceutical compositions thereof” (Legochem Biosciences, Inc., priority 2011, dated 2017).
# System: A. baumannii 49
# Assay: In vitro antibacterial activity test (broth microdilution)
# Type: cell-based
# Details: Acinetobacter baumannii, 49, A. baumannii 49
# How it was run: (§1)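 Stocks at 10,240 ug/mL in DMSO, serially diluted in DMSO then water to final 0.0626–128 ug/mL (2.5% V/V DMSO). CLSI broth microdilution; MIC90, ug/mL.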
row,SMILES,MIC90 [µg/mL]
1,CC(C)(O/N=C(\C(=O)N[C@@H]1C(=O)N2C(C(=O)[O-])=C(/C=C/C[n+]3cnc(N)c(NC(=O)CCCN)c3)CSC12)c1nc(N)sc1Cl)C(=O)O (some centres unmarked) [Compound 64],32
2,CC(C)(O/N=C(\C(=O)N[C@@H]1C(=O)N2C(C(=O)[O-])=C(/C=C/C[n+]3cnc(N)c(NC(=O)CN)c3N)CSC12)c1csc(N)n1)C(=O)O (some centres unmarked) [Compound 43],> 128

# System: P. aeruginosa 6065Y
# Assay: as above
# Type: cell-based
# Details: Pseudomonas aeruginosa, 6065Y
# How it was run: as §1
row,SMILES,MIC90 [µg/mL]
1,CC(C)(O/N=C(\C(=O)N[C@@H]1C(=O)N2C(C(=O)[O-])=C(/C=C/C[n+]3cnc(N)c(NC(=O)CCCN)c3)CSC12)c1nc(N)sc1Cl)C(=O)O (some centres unmarked) [Compound 64],32
2,CC(C)(O/N=C(\C(=O)N[C@@H]1C(=O)N2C(C(=O)[O-])=C(/C=C/C[n+]3cnc(N)c(NC(=O)CN)c3N)CSC12)c1csc(N)n1)C(=O)O (some centres unmarked) [Compound 43],16

# System: E. cloacae β19
# Assay: as above
# Type: cell-based
# Details: Enterobacter cloacae
# How it was run: as §1
row,SMILES,MIC90 [µg/mL]
1,CC(C)(O/N=C(\C(=O)N[C@@H]1C(=O)N2C(C(=O)[O-])=C(/C=C/C[n+]3cnc(N)c(NC(=O)CCCN)c3)CSC12)c1nc(N)sc1Cl)C(=O)O (some centres unmarked) [Compound 64],8
2,CC(C)(O/N=C(\C(=O)N[C@@H]1C(=O)N2C(C(=O)[O-])=C(/C=C/C[n+]3cnc(N)c(NC(=O)CN)c3N)CSC12)c1csc(N)n1)C(=O)O (some centres unmarked) [Compound 43],0.5

# System: M. catarrhalis 2524
# Assay: as above
# Type: cell-based
# Details: Moraxella catarrhalis, 2524
# How it was run: as §1
row,SMILES,MIC90 [µg/mL]
1,CC(C)(O/N=C(\C(=O)N[C@@H]1C(=O)N2C(C(=O)[O-])=C(/C=C/C[n+]3cnc(N)c(NC(=O)CCCN)c3)CSC12)c1nc(N)sc1Cl)C(=O)O (some centres unmarked) [Compound 64],< 0.0625
2,CC(C)(O/N=C(\C(=O)N[C@@H]1C(=O)N2C(C(=O)[O-])=C(/C=C/C[n+]3cnc(N)c(NC(=O)CN)c3N)CSC12)c1csc(N)n1)C(=O)O (some centres unmarked) [Compound 43],< 0.0625

# System: K. pneumoniae β9
# Assay: as above
# Type: cell-based
# Details: Klebsiella pneumoniae
# How it was run: as §1
row,SMILES,MIC90 [µg/mL]
1,CC(C)(O/N=C(\C(=O)N[C@@H]1C(=O)N2C(C(=O)[O-])=C(/C=C/C[n+]3cnc(N)c(NC(=O)CCCN)c3)CSC12)c1nc(N)sc1Cl)C(=O)O (some centres unmarked) [Compound 64],2
2,CC(C)(O/N=C(\C(=O)N[C@@H]1C(=O)N2C(C(=O)[O-])=C(/C=C/C[n+]3cnc(N)c(NC(=O)CN)c3N)CSC12)c1csc(N)n1)C(=O)O (some centres unmarked) [Compound 43],1

# System: P. aeruginosa 40
# Assay: as above
# Type: cell-based
# Details: Pseudomonas aeruginosa, 40
# How it was run: as §1
row,SMILES,MIC90 [µg/mL]
1,CC(C)(O/N=C(\C(=O)N[C@@H]1C(=O)N2C(C(=O)[O-])=C(/C=C/C[n+]3cnc(N)c(NC(=O)CCCN)c3)CSC12)c1nc(N)sc1Cl)C(=O)O (some centres unmarked) [Compound 64],8
2,CC(C)(O/N=C(\C(=O)N[C@@H]1C(=O)N2C(C(=O)[O-])=C(/C=C/C[n+]3cnc(N)c(NC(=O)CN)c3N)CSC12)c1csc(N)n1)C(=O)O (some centres unmarked) [Compound 43],16

# System: E. coli AG100
# Assay: as above
# Type: cell-based
# Details: Escherichia coli, AG100
# How it was run: as §1
row,SMILES,MIC90 [µg/mL]
1,CC(C)(O/N=C(\C(=O)N[C@@H]1C(=O)N2C(C(=O)[O-])=C(/C=C/C[n+]3cnc(N)c(NC(=O)CCCN)c3)CSC12)c1nc(N)sc1Cl)C(=O)O (some centres unmarked) [Compound 64],0.5
2,CC(C)(O/N=C(\C(=O)N[C@@H]1C(=O)N2C(C(=O)[O-])=C(/C=C/C[n+]3cnc(N)c(NC(=O)CN)c3N)CSC12)c1csc(N)n1)C(=O)O (some centres unmarked) [Compound 43],0.25

# System: P. aeruginosa 37
# Assay: as above
# Type: cell-based
# Details: Pseudomonas aeruginosa, 37, P. aeruginosa 37
# How it was run: as §1
row,SMILES,MIC90 [µg/mL]
1,CC(C)(O/N=C(\C(=O)N[C@@H]1C(=O)N2C(C(=O)[O-])=C(/C=C/C[n+]3cnc(N)c(NC(=O)CCCN)c3)CSC12)c1nc(N)sc1Cl)C(=O)O (some centres unmarked) [Compound 64],16
2,CC(C)(O/N=C(\C(=O)N[C@@H]1C(=O)N2C(C(=O)[O-])=C(/C=C/C[n+]3cnc(N)c(NC(=O)CN)c3N)CSC12)c1csc(N)n1)C(=O)O (some centres unmarked) [Compound 43],32

# System: K. pneumoniae 2011E
# Assay: as above
# Type: cell-based
# Details: Klebsiella pneumoniae, 2011E
# How it was run: as §1
row,SMILES,MIC90 [µg/mL]
1,CC(C)(O/N=C(\C(=O)N[C@@H]1C(=O)N2C(C(=O)[O-])=C(/C=C/C[n+]3cnc(N)c(NC(=O)CCCN)c3)CSC12)c1nc(N)sc1Cl)C(=O)O (some centres unmarked) [Compound 64],2
2,CC(C)(O/N=C(\C(=O)N[C@@H]1C(=O)N2C(C(=O)[O-])=C(/C=C/C[n+]3cnc(N)c(NC(=O)CN)c3N)CSC12)c1csc(N)n1)C(=O)O (some centres unmarked) [Compound 43],0.5

# System: K. pneumoniae β13
# Assay: as above
# Type: cell-based
# Details: Klebsiella pneumoniae
# How it was run: as §1
row,SMILES,MIC90 [µg/mL]
1,CC(C)(O/N=C(\C(=O)N[C@@H]1C(=O)N2C(C(=O)[O-])=C(/C=C/C[n+]3cnc(N)c(NC(=O)CCCN)c3)CSC12)c1nc(N)sc1Cl)C(=O)O (some centres unmarked) [Compound 64],2
2,CC(C)(O/N=C(\C(=O)N[C@@H]1C(=O)N2C(C(=O)[O-])=C(/C=C/C[n+]3cnc(N)c(NC(=O)CN)c3N)CSC12)c1csc(N)n1)C(=O)O (some centres unmarked) [Compound 43],0.5

# System: K. pneumoniae β11
# Assay: as above
# Type: cell-based
# Details: Klebsiella pneumoniae
# How it was run: as §1
row,SMILES,MIC90 [µg/mL]
1,CC(C)(O/N=C(\C(=O)N[C@@H]1C(=O)N2C(C(=O)[O-])=C(/C=C/C[n+]3cnc(N)c(NC(=O)CCCN)c3)CSC12)c1nc(N)sc1Cl)C(=O)O (some centres unmarked) [Compound 64],8
2,CC(C)(O/N=C(\C(=O)N[C@@H]1C(=O)N2C(C(=O)[O-])=C(/C=C/C[n+]3cnc(N)c(NC(=O)CN)c3N)CSC12)c1csc(N)n1)C(=O)O (some centres unmarked) [Compound 43],32

# System: A. baumannii 52
# Assay: as above
# Type: cell-based
# Details: Acinetobacter baumannii, 52
# How it was run: as §1
row,SMILES,MIC90 [µg/mL]
1,CC(C)(O/N=C(\C(=O)N[C@@H]1C(=O)N2C(C(=O)[O-])=C(/C=C/C[n+]3cnc(N)c(NC(=O)CCCN)c3)CSC12)c1nc(N)sc1Cl)C(=O)O (some centres unmarked) [Compound 64],32
2,CC(C)(O/N=C(\C(=O)N[C@@H]1C(=O)N2C(C(=O)[O-])=C(/C=C/C[n+]3cnc(N)c(NC(=O)CN)c3N)CSC12)c1csc(N)n1)C(=O)O (some centres unmarked) [Compound 43],> 128

# System: P. aeruginosa 1912E
# Assay: as above
# Type: cell-based
# Details: Pseudomonas aeruginosa, 1912E
# How it was run: as §1
row,SMILES,MIC90 [µg/mL]
1,CC(C)(O/N=C(\C(=O)N[C@@H]1C(=O)N2C(C(=O)[O-])=C(/C=C/C[n+]3cnc(N)c(NC(=O)CCCN)c3)CSC12)c1nc(N)sc1Cl)C(=O)O (some centres unmarked) [Compound 64],4
2,CC(C)(O/N=C(\C(=O)N[C@@H]1C(=O)N2C(C(=O)[O-])=C(/C=C/C[n+]3cnc(N)c(NC(=O)CN)c3N)CSC12)c1csc(N)n1)C(=O)O (some centres unmarked) [Compound 43],4

# System: P. aeruginosa 43
# Assay: as above
# Type: cell-based
# Details: Pseudomonas aeruginosa, 43
# How it was run: as §1
row,SMILES,MIC90 [µg/mL]
1,CC(C)(O/N=C(\C(=O)N[C@@H]1C(=O)N2C(C(=O)[O-])=C(/C=C/C[n+]3cnc(N)c(NC(=O)CCCN)c3)CSC12)c1nc(N)sc1Cl)C(=O)O (some centres unmarked) [Compound 64],128
2,CC(C)(O/N=C(\C(=O)N[C@@H]1C(=O)N2C(C(=O)[O-])=C(/C=C/C[n+]3cnc(N)c(NC(=O)CN)c3N)CSC12)c1csc(N)n1)C(=O)O (some centres unmarked) [Compound 43],> 128

# System: K. pneumoniae β10
# Assay: as above
# Type: cell-based
# Details: Klebsiella pneumoniae
# How it was run: as §1
row,SMILES,MIC90 [µg/mL]
1,CC(C)(O/N=C(\C(=O)N[C@@H]1C(=O)N2C(C(=O)[O-])=C(/C=C/C[n+]3cnc(N)c(NC(=O)CCCN)c3)CSC12)c1nc(N)sc1Cl)C(=O)O (some centres unmarked) [Compound 64],1
2,CC(C)(O/N=C(\C(=O)N[C@@H]1C(=O)N2C(C(=O)[O-])=C(/C=C/C[n+]3cnc(N)c(NC(=O)CN)c3N)CSC12)c1csc(N)n1)C(=O)O (some centres unmarked) [Compound 43],0.5

# System: K. pneumoniae β14
# Assay: as above
# Type: cell-based
# Details: Klebsiella pneumoniae
# How it was run: as §1
row,SMILES,MIC90 [µg/mL]
1,CC(C)(O/N=C(\C(=O)N[C@@H]1C(=O)N2C(C(=O)[O-])=C(/C=C/C[n+]3cnc(N)c(NC(=O)CCCN)c3)CSC12)c1nc(N)sc1Cl)C(=O)O (some centres unmarked) [Compound 64],2
2,CC(C)(O/N=C(\C(=O)N[C@@H]1C(=O)N2C(C(=O)[O-])=C(/C=C/C[n+]3cnc(N)c(NC(=O)CN)c3N)CSC12)c1csc(N)n1)C(=O)O (some centres unmarked) [Compound 43],1

# System: E. coli β4
# Assay: as above
# Type: cell-based
# Details: Escherichia coli
# How it was run: as §1
row,SMILES,MIC90 [µg/mL]
1,CC(C)(O/N=C(\C(=O)N[C@@H]1C(=O)N2C(C(=O)[O-])=C(/C=C/C[n+]3cnc(N)c(NC(=O)CCCN)c3)CSC12)c1nc(N)sc1Cl)C(=O)O (some centres unmarked) [Compound 64],1
2,CC(C)(O/N=C(\C(=O)N[C@@H]1C(=O)N2C(C(=O)[O-])=C(/C=C/C[n+]3cnc(N)c(NC(=O)CN)c3N)CSC12)c1csc(N)n1)C(=O)O (some centres unmarked) [Compound 43],0.5

# System: A. calcoaceticus ATCC15473
# Assay: as above
# Type: cell-based
# Details: Acinetobacter calcoaceticus, ATCC15473, A. calcoaceticus ATCC15473
# How it was run: as §1
row,SMILES,MIC90 [µg/mL]
1,CC(C)(O/N=C(\C(=O)N[C@@H]1C(=O)N2C(C(=O)[O-])=C(/C=C/C[n+]3cnc(N)c(NC(=O)CCCN)c3)CSC12)c1nc(N)sc1Cl)C(=O)O (some centres unmarked) [Compound 64],1
2,CC(C)(O/N=C(\C(=O)N[C@@H]1C(=O)N2C(C(=O)[O-])=C(/C=C/C[n+]3cnc(N)c(NC(=O)CN)c3N)CSC12)c1csc(N)n1)C(=O)O (some centres unmarked) [Compound 43],4

# System: A. baumannii 46
# Assay: as above
# Type: cell-based
# Details: Acinetobacter baumannii, 46, A. baumannii 46
# How it was run: as §1
row,SMILES,MIC90 [µg/mL]
1,CC(C)(O/N=C(\C(=O)N[C@@H]1C(=O)N2C(C(=O)[O-])=C(/C=C/C[n+]3cnc(N)c(NC(=O)CCCN)c3)CSC12)c1nc(N)sc1Cl)C(=O)O (some centres unmarked) [Compound 64],16
2,CC(C)(O/N=C(\C(=O)N[C@@H]1C(=O)N2C(C(=O)[O-])=C(/C=C/C[n+]3cnc(N)c(NC(=O)CN)c3N)CSC12)c1csc(N)n1)C(=O)O (some centres unmarked) [Compound 43],32
